Columns and labels:
[1] = system: panel of 31 melanoma cell lines; test: MTS cell viability assay in a panel of 31 melanoma cell lines; format: cell-based; details: for % of Less Sensitive cell lines / Less sensitive cell lines (number/total) / Sensitive cell lines (number/total): Cut-Off IC50 < 100 nmol/L; for Number of sensitive cell lines: sensitivity defined as IC50<500 nmol/L
Protocol: Cell viability was also assessed in a panel of 31 melanoma cell lines carrying different mutations in BRAF following treatment with a zearalenone analog compound, Compound 106. All assays were performed in a 96 well format. Cell viability was assessed after four days following treatment. Cell viability was assessed with a MTS Assay (CellTiter96®AqueousOne Solution Cell Proliferation Assay, Promega) in a panel of cell lines carrying various BRAF mutations to determine the effect of BRAF genotype on drug sensitivity. The mutational status of these cell lines and IC50 in nmol/L is depicted in FIG. 3C.
Cell viability was assessed in a panel of melanoma cell lines carrying different mutations in BRAF, and PTEN following treatment with the MEK inhibitor, Compound 106. The panel of 31 melanoma cell lines was tested with eight concentrations of Compound 106 ranging from 10 μmol/L to 0.0003 μmol/L of Compound 106. (The panel of cell lines also carries mutations in one or more additional genes associated with cancer).
All assays were performed in a 96 well format. Cell viability was assessed after four days following treatment. Cell viability was assessed with a MTS Assay (CellTiter96®AqueousOne Solution Cell Proliferation Assay, Promega) to determine the effect of genotype on drug sensitivity.

[2] = system: LOX human melanoma xenografts; test: Subcutaneous LOX melanoma xenograft model; format: in vivo, mice
Protocol: The purpose of this study was to investigate anticancer activity of Compound 106 in a LOX human melanoma xenograft model. LOX human melanoma cells, which carry a BRAF (V600E) mutation, were obtained from the DCTD Tumor Repository (Frederick, Md.). Cells were grown in monolayer cultures in T225 flask with RPMI-1640 growth media at 37° C. in a 5% CO2 humidified incubator. Cells were further cultivated in T225 flasks for the in vivo study. On the day of subcutaneous (s.c.) injections of the cells, growth medium was removed, flasks were washed with PBS, and cells were collected with trypsinization. Cells were washed and centrifuged for 3 minutes, and then resuspended in ice-cold PBS.
Female athymic NU/NU mice were inoculated s.c. with 1×10^6 LOX human melanoma cells. Those animals that developed tumors of approximately 150 mm^3 were selected and randomized to five groups. The study consisted of a vehicle-treated group and four drug-treated groups of 8 mice per group for a total of 40 mice on the first day of treatment. All treatments were initiated on day 6. Compound 106 was administered intravenously (i.v.) on a Q4D×3 (days 6, 10, and 14) dosing schedule at dosages of 5, 10, 20 and 40 mg/kg with a volume of injection of 0.1 mL per 10 g body weight. The control group was treated with vehicle (20% Captisol in water) alone.
The s.c. tumor volumes were measured and animals were weighed twice weekly starting with the first day of treatment. Tumor volume and relative body weight (RBW) were determined as described in Example 12.
The study was terminated fifty-nine days after cancer cell transplantation. For each Compound 106 treatment group, measurements were also terminated when mean tumor volume reached two doublings (4-fold tumor volume) from the first day of treatment.
Animals were treated intravenously on days 6, 10, and 14 (Q4D×3; indicated by arrows in FIG. 11). Tumor measurements on tumor bearing mice in all surviving groups were stopped on day 37. Then, tumor measurements were continued for tumor-free mice in the 10 mg/kg (1/8), 20 mg/kg (5/8), and 40 mg/kg (7/8) Compound 106 treatment groups. The study was terminated on day 59. Asterisks (*) indicate P<0.05 vs. control group.

[3] = system: DBTRG-05MG human glioblastoma xenografts; test: Subcutaneous DBTRG-05MG glioblastoma xenograft model; format: in vivo, mice
Protocol: The purpose of this study was to investigate anticancer activity of Compound 106 in a human DBTRG-05MG glioblastoma xenograft model. DBTRG-05MG human glioblastoma cancer cells, which carry the BRAF (V600E) mutation, were grown in monolayer cultures in ATCC-recommended growth media at 37° C. in a 5% CO2 humidified incubator. Cells were expanded in T225 flasks for the in vivo study. On the day of injection, growth medium was removed, flasks were washed with PBS, and cells were collected by trypsinization. The cells were washed and collected by centrifugation, and resuspended in ice-cold PBS.
Female athymic NU/NU mice (6 week old, Charles River Laboratories (Wilmington, Mass.)) were inoculated subcutaneously (s.c.) with 5×10^6 DBTRG-05MG human glioblastoma cancer cells. Those animals that developed tumors of approximately 150 mm^3 were selected and randomized into five groups.
The study consisted of a vehicle-treated group and four drug-treated groups of 8 mice per group for a total of 40 mice on the first day of treatment. All treatments were initiated on day 21. Compound 106 was administered intravenously (i.v.) on a Q4D×3 (days 21, 25, and 29) dosing schedule at dosages of 5, 10, 20 and 40 mg/kg with a volume of injection of 0.1 mL per 10 g body weight (Q4D×3=every four days for a total of three injections). The control group was treated with vehicle alone (20% Captisol in water; Captisol® (Sulfobutyl Ether Beta Cycolodextrin, Sodium Salt; Cydex, Inc., KS)).
General health of the mice was monitored and mortality was recorded daily. Tumor dimensions and animal body weights were recorded twice a week starting on the first day of treatment. The s.c. tumor volumes were measured and animals were weighed twice weekly starting with the first day of treatment. Tumor volume was determined by caliper measurement (mm) and using the following formula: […]
The study was terminated 60 days after cancer cell transplantation. […]

[4] = mutant BRAF gene (20 cell lines)
[5] = total cell lines (31 cell lines)
[6] = wild-type BRAF gene (11 cell lines)

## CCNc1cc(O)c2c(c1)/C=C/C[C@H](O)[C@H](O)C(=O)/C=C\[C@@H](C)[C@H](C)OC2=O [Compound 106]
[1]; [4]
  % of Less Sensitive cell lines: (25%)
  Less sensitive cell lines (number/total): 5/20
  Sensitive cell lines (number/total): 15/20
[1]; [5]
  % of Less Sensitive cell lines: (42%)
  Less sensitive cell lines (number/total): 13/31
[1]; [6]
  % of Less Sensitive cell lines: (73%)
  Less sensitive cell lines (number/total): 8/11
  Sensitive cell lines (number/total): 3/11
[1]; PTEN gene Mutant (8 cell lines), Total
  % of Cell lines with IC50 < 100 nmol/L: (50%)
[1]; PTEN gene Mutant, BRAF Mutant
  % of Cell lines with IC50 < 100 nmol/L: (50%)
[1]; PTEN gene Mutant, BRAF Wild Type
  % of Cell lines with IC50 < 100 nmol/L: (0%)
[1]; PTEN gene Wild Type (23 cell lines), Total
  % of Cell lines with IC50 < 100 nmol/L: (65%)
[1]; PTEN gene Wild Type, BRAF Mutant
  % of Cell lines with IC50 < 100 nmol/L: (86%)
[1]; PTEN gene Wild Type, BRAF Wild Type
  % of Cell lines with IC50 < 100 nmol/L: (33%)
[1]; p-AKT expression High (G2-G3), BRAF Mutant
  % of Cell lines with IC50 < 100 nmol/L: (67%)
[1]; p-AKT expression High (G2-G3), BRAF Wild Type
  % of Cell lines with IC50 < 100 nmol/L: (0%)
[1]; p-AKT expression High (G2-G3), Total
  % of Cell lines with IC50 < 100 nmol/L: (57%)
[1]; p-AKT expression Low (G0-G1), BRAF Mutant
  % of Cell lines with IC50 < 100 nmol/L: (79%)
[1]; p-AKT expression Low (G0-G1), BRAF Wild Type
  % of Cell lines with IC50 < 100 nmol/L: (30%)
[1]; p-AKT expression Low (G0-G1), Total
  % of Cell lines with IC50 < 100 nmol/L: (58%)
[1]; of the 8 cell lines with mutant PTEN or loss of PTEN
  Number of sensitive cell lines: 3 cell lines
[1]; of the 23 cell lines with wild-type PTEN
  Number of sensitive cell lines: 12 cell lines
[2]; 10 mg/kg i.v. Q4D×3
  Tumor-free animals at the end of the study on day 59: 1/8 and one
[2]; 20 mg/kg i.v. Q4D×3
  Tumor-free animals at the end of the study on day 59: 5/8 and five
[2]; 40 mg/kg i.v. Q4D×3
  Tumor-free animals at the end of the study on day 59: 7/8 and seven
[2]; 10, 20, and 40 mg/kg i.v. Q4D×3
  Anticancer activity (tumor volume vs. control group): statistically significant anticancer activity
[3]; 5 mg/kg i.v. Q4D×3
  Tumor-free animals on day 60: One out of eight
[3]; 20 mg/kg i.v. Q4D×3
  Tumor-free animals on day 60: One out of eight
[3]; 5, 10, 20, and 40 mg/kg i.v. Q4D×3
  Anticancer activity (tumor volume vs. control group): statistically significant anticancer activity

— patent publication US20160291027A1, “METHODS FOR […] ABILITY OF A Z[…] COMPOUND TO TREAT CANCER” (Eisai R&D Management Co., Ltd., priority 2007, published 2016)
